Results reported in patent US20180092895A1, “METHOD OF TREATMENT OF HEPATITIS C” (priority 2016, published 2018).
pEC50: −log10 of the molar value.

Assays:
HCV replicon = HCV replicon assay (antiviral activity, luciferase endpoint); format: cell-based, hepatitis C virus
Source text: (§1) Stable HCV replicons of different genotypes may be used for anti-HCV evaluation. We used the subgenomic HCV replicons of genotype 1a (H77 strain), 1b (Con1 strain), and 2a (JFH-1 strain), which are Huh7 human hepatoma cell lines that contains an HCV replicon.
The HCV replicon antiviral evaluation assay examined the effects of compounds at six serial dilutions. Human interferon alpha-2b (rIFNα-2b) and/or Sofosbuvir were included in each run as a positive control compound.
(§2) Briefly, the replicon cells were plated at 5,000 cells/well into 96-well plates that were dedicated for the analysis of cell numbers (cytotoxicity) or antiviral activity. On the following day, samples were diluted with assay media and added to the appropriate wells. Cells were processed 72 hours later when the cells were still sub-confluent. For the luciferase endpoint assay, HCV replicon levels were assessed as replicon-derived Luc activity. The concentration of drug that reduced cell viability was assessed by the fluorometric CytoTox-1 cell proliferation assay (Promega), (expressed as cell numbers). For the qRT-PCR/TaqMan assay, total RNA was extracted from the replicon cells using RNeasy 96 kit (Qiagen) according to the manufacturer's protocol. Real-time RTPCR/TaqMan assays were performed to measure copy numbers of the replicon RNA and cellular ribosomal RNA. Where applicable EC50 (concentration inhibiting HCV replicon by 50%), EC90 (concentration inhibiting HCV replicon by 90%), CC50 (concentration decreasing cell viability by 50%), CC90 (concentration decreasing cell viability by 90%) and SI (selectivity indices: CC50/EC50 and CC90/EC90) values were derived.

[1] = HCV replicon assay, cell viability (CytoTox-1); format: cell-based; settings: human, Huh7 hepatoma cells containing a subgenomic HCV replicon, In vitro HCV replicon assay, post-infection, read-out: CC50 (concentration decreasing cell viability by 50%)
Method: as §1
as §2, with “Where applicable EC50 (concentration inhibiting HCV replicon by 50%), EC90 (concentration inhibiting HCV replicon by 90%), CC50 (concentration decreasing cell viability by 50%), CC90 (concentration decreasing cell viability by 90%) and SI (selectivity indices: CC50/EC50 and CC90/EC90) values were derived.” left out

[2] = test system: cell culture-derived HCV (HCVcc); experiment: microbe, parasite or virus in culture; format: cell-based, hepatitis C virus
Method: (§3) Huh7.5 cells were grown in Dulbecco's modified essential media (DMEM), 10%0/fetal bovine serum (FBS), 1% penicillin-streptomycin (pen-strep), 1% Non-essential amino acids (NEAA) in a 5% CO2 incubator at 37° C. Huh7.5 cells were seeded at 1×10^4 cells per well into 96-well plates according to Southern Research Institute standard format. Test articles were serially diluted with DMEM plus 5% FBS. The diluted compound in the amount of […] was mixed with equal volume of cell culture-derived HCV (HCVcc), then applied to appropriate wells in the plate. Human interferon alpha-2b (rIFNα-2b) and/or Sofosbuvir were included as a positive control. After 72 hr incubation at 37° C., the cells were lysed for measurement of luciferase activity using Renilla Luciferase Assay System (Promega) according to manufacturer's instruction. The number of cells in each well were determined by CytoTox-1 reagent (Promega). Test articles were tested at 6 serial dilutions in triplicate to derive, if applicable, EC50 and EC90 (concentration inhibiting HCVcc infectivity by 50% and 90%, respectively), CC50 (concentration decreasing cell viability by 50%) and SI (selectivity index: CC50/EC50) values (Table 1).

in vitro = format: cell-based; settings: human
Method: as §3

## COC(=O)C1=C(C)NC(C)=C(C(=O)OC(C)C)C1c1cccc2nonc12 (centres unmarked) [Isradipine, isradipine]
HCV replicon; HCV replicon assay
  anti-Hepatitis C activity (in words): significant anti-Hepatitis C activity
HCV replicon; Hepatitis C virus, GT1B, 72 h, read-out: EC50 (concentration inhibiting HCV replicon by 50%)
  pEC50: 4.29
HCV replicon; In vitro HCV replicon assay, post-infection
  Selectivity index (CC50/EC50): 0.99
[1]
  CC50 at 72 h: 50.8 µM
[2]; Hepatitis C virus, Huh7.5, 72 h, read-out: EC50 (concentration inhibiting HCVcc infectivity by 50%)
  pEC50: 4.90
[2]; In vitro HCV cc assay, pre-infection
  Selectivity index (CC50/EC50): 4.07
[2]; hepatitis C viral infectivity assay
  anti-Hepatitis C activity (in words): significant anti-Hepatitis C activity
In vitro
  CC50 at 72 h: 51.2 µM
